Where two headings read alike, the source gives them in different places.
Assays:
[1] = Weight change in diet-induced obesity (DIO) rat model, 4-week administration; assay type: in vivo, male Sprague Dawley (SD) rats; conditions: DIO rats, 4 weeks
Procedure: To simultaneously evaluate both the weight-loss and hypoglycemic effects of the cyclohexene derivative according to the present invention, experiments were carried out, as follows.
Specifically, male Sprague Dawley (SD) rats (approximately 4 weeks old) in a diet-induced obesity model were fed with a high-fat diet (Lab. Diet Co.) for approximately 10 weeks to induce high-fat diet-induced obesity (DIO). The rats undergoing the high-fat diet were randomly selected, and divided into groups (n=8) for respective administrations. The compounds of Comparative Examples 3 and 4 and Examples 48 and 119 were administered to the divided DIO rats each group for 4 weeks.
The weights of the DIO rats were measured twice a week during a period of administration of 4 weeks to record a change in the weights. At the end of the 4-week period of administration, a hypoglycemic effect was evaluated using an oral glucose tolerance test (OGTT), as follows.
FIG. 1 is a graph determining the changes in weights of rats after compounds of Example 48 and Comparative Examples 3 and 4 according to the present invention are administered to a diet-induced obesity (DIO) rat model for 4 weeks (In FIG. 1, the term “untreated group (Vehicle)” represents an untreated group in a high-fat DIO rat model; and the term “Lean” represents an untreated group in a normal SD rat model rather than a disease model).

[2] = molecular target: T1, G protein-coupled receptor 119 (GPR-119) (Mesocricetus auratus, UniProt A0A1U8CD06); assay: Evaluation of cAMP activity in HIT-T15 cells (HTRF cAMP dynamic kit); assay type: cell-based, hamster; conditions: cAMP activation
T1 construct: hamster-derived β-cells containing G protein-coupled receptor 119 (GPR-119), HIT-T15 cells; host or cells: HIT-T15 (hamster pancreatic β-cells)
T1 sequence (A0A1U8CD06 1-334): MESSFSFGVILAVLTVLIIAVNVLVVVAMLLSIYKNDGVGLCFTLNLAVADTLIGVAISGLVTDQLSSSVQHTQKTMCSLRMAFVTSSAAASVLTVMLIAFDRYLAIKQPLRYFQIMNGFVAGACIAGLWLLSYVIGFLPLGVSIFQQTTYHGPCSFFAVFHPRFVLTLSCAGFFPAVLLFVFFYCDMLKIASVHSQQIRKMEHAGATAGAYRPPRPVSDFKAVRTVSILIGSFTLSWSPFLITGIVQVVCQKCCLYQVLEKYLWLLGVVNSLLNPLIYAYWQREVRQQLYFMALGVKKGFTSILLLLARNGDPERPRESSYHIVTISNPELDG
How it was run: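 HIT-T15 cells, 60,000/well, treated next day with compound at six concentrations ([…]) for 1 h at 37° C. Lysate cAMP quantified by HTRF competitive immunoassay (D2-cAMP, cryptate anti-cAMP); activity taken as change in FRET signal relative to DMSO.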

in vivo = conditions: female, Ihara's cataract rats (ICR), rat, po
Procedure: To evaluate acute toxicity of the cyclohexene derivative according to the present invention, experiments were carried out, as follows.
Five 7-week-old female Ihara's cataract rats (ICRs) were supplied by Nara Biotech Co. Ltd., housed in a breeding farm, and acclimated to new environments while being fed with general solid feeds and water. When the rats were 8 weeks old, experiments were carried out. Environmental conditions were maintained constant: a set temperature of 23±3° C., a humidity of 55±15%, an illuminance of 150 to 300 Lux, a ventilation rate of 10 to 20 times/hour, and a lighting time of 12 hours (light-dark cycle: lighting at 8 a.m. and lights-out at 8 p.m.). As the feeds, solid feeds for laboratory animals (5L79 Lab Diet, Purina Mills, Richmond, Ind., USA), which had been sterilized by exposure to radiation, were provided by Orientbio Inc. so that rats were allowed to freely consume the solid feeds. As the water, running water was disinfected using a UV sterilizer and an ultra-filtration system, and then provided o that rats were allowed to freely drink the water in a water bottle. Analyses of contaminants in the water and feeds were carried out according to the ChemOn Inc.'s standard operating procedure (SOP). […]

blood glucose level = assay: Oral glucose tolerance test (OGTT) in high-fat diet model; assay type: in vivo; conditions: hypoglycemic level, 20 mg/kg oral, glucose 2 g/kg oral after 30 minutes; for inhibition in vivo at 20 mg/kg: Mus musculus, 2 h, read-out: % AUC
Procedure: To evaluate in vivo effective effects of the cyclohexene derivatives according to the present invention, experiments were carried out, as follows.
Specifically, male C57BL/6J (C57 black 6) […] (8 to 10 weeks old) in a high-fat diet model were acclimated for at least 7 days, and only healthy rat populations were selected and subjected to an oral glucose tolerance test (OGTT). The rats were fasted for 12 to 15 hours, and then randomly divided into groups with five rats per group. Thereafter, each of the compounds of Examples 1, 14, 48, 69, 80, 118, 139, 147, 148, 169, 190, 199, 200, 204, 227, and Comparative Examples 1 and 2 according to the present invention was administered to the rats at a dose of 20 mg/kg. In this case, a vehicle (0.5%, carboxymethyl cellulose (CMC)) was administered as an untreated group, and the dose of the compound administered together with the vehicle was orally administered at 10 ml/kg. After 30 minutes of administration, glucose (2 g/kg) was orally administered at a dose of 10 ml/kg. A blood glucose level was measured using an Accu-Chek Active Strip (Rosche Diagnostic Co.). In this case, the glucose level in blood collected via caudal venipuncture was measured at time points of −30, 0, 20, 40, 60, and 120 minutes after glucose administration.
In Table 3, the unit “% AUC (area under the curve)” represents a hypoglycemic level.

NCI-H716 cells = assay: Promotion of glucagon-like peptide-1 (GLP-1) secretion (ELISA); assay type: cell-based, human; conditions: NCI-H716 cells, 1, 10 and 30 μM-treated groups
Procedure: To evaluate an effect of the cyclohexene derivative according to the present invention on promotion of glucagon-like peptide-1 (GLP-1) secretion, experiments were carried out, as follows.
NCI-H716 cells that were human enterocytes were plated on 12 wells at 1×10^6 cells per well. After 48 hours, the cells were starved in serum-free media for 2 hours, and treated with a varying concentration of siptagliptin that was a dipeptidyl peptidase-IV (DPP-IV) inhibitor, and the compounds of Comparative Example 1 (1, 10, 30 μM), Comparative Example 5 (10 μM), Example 48 (1, 10, 30 μM), and Example 291 (1, 10, 30 μM). After an hour, supernatants are recovered to determine an amount of the secreted GLP-1 peptide. The GLP-1 measurement was performed using an enzyme-linked immunosorbent assay (ELISA; Millipore, EGLP-35K), and the amount of the secreted GLP-1 peptide was indicated by the unit “pM”.
FIG. 3 is graph plotted for amounts of secreted GLP-1 when NCI-H716 cells that are human enterocytes are treated with the compounds of Comparative Examples 1 and 5 and Example 48 according to the present invention.

[3] = 1 h at 37° C., six concentrations, read-out: EC50

| Compound | EC50 [2, 3] [nM] | EC50 ([2]; read-out: EC50 value) [nM] | inhibition in vivo at 20 mg/kg (blood glucose level) [%] | also measured |
| --- | --- | --- | --- | --- |
| CC(C)CC(N(C)C)C1(c2ccc(Cl)cc2)CCC1 (stereo not shown) [Comparative Example 4, Sibutramine] | – | – | – | weight-loss effect ([1]; oral, 5 mg/kg): the weight rather increased after 2 weeks of the oral administration |
| CN(C)C(=N)NC(=N)N [Comparative Example 3, Metformin] | – | – | – | weight-loss effect ([1]; oral, 300 mg/kg): the weight rather increased after 2 weeks of the oral administration |
| CCc1cnc(N2CCC(COc3ccc(C4=CCC(C(=O)N5CCC[C@H]5CO)CC4)cc3)CC2)nc1 (stereo partly drawn) [Example 119, (4-(4-((1-(5-ethylpyrimidin-2-yl)piperidin-4-yl)methoxy)phenyl)cyclohex-3-enyl)((S)-2-(hydroxymethyl)pyrrolidin-1-yl)methanone] | 6.8 | ≤ 50 | – | LD50 (in vivo): ≥ 2000 mg/kg |
| CCc1cnc(N2CCC(COc3ccc(C4=CCC(C(=O)N5CCC(=NO)CC5)CC4)cc3)CC2)nc1 (stereo not shown) [Example 277, (4-(4-((1-(5-ethylpyrimidin-2-yl)piperidin-4-yl)methoxy)phenyl)cyclohex-3-enyl)(4-(hydroxyimino)piperidin-1-yl)methanone] | 20 | – | – | % AUC (blood glucose level): 19.8 % AUC |
| CC(C)c1noc(N2CCC(COc3ccc(C4=CCC(C(=O)N5CC[C@@H](O)C5)CC4)cc3)CC2)n1 (stereo partly drawn) [Example 48, ((R)-3-hydroxypyrrolidin-1-yl)(4-(4-((1-(3-isopropyl-1,2,4-oxadiazol-5-yl)piperidin-4-yl)methoxy)phenyl)cyclohex-3-enyl)methanone] | 35 | ≤ 50 | 21.2 | weight-loss effect ([1]; oral, 10, 20, and 50 mg/kg): persistent weight loss was observed for 4 weeks; GLP-1 secretion compared with Comparative Example 1 (NCI-H716 cells): induced GLP-1 secretion to a higher level than that of Comparative Example 1; LD50 (in vivo): ≥ 2000 mg/kg |
| CCc1cnc(N2CCC(COc3ccc(C4=CCC(C(=O)N5CCC[C@@H]5CO)CC4)cc3)CC2)nc1 (stereo partly drawn) [Example 118, (4-(4-((1-(5-ethylpyrimidin-2-yl)piperidin-4-yl)methoxy)phenyl)cyclohex-3-enyl)((R)-2-(hydroxymethyl)pyrrolidin-1-yl)methanone] | 31 | ≤ 50 | 23.5 | – |
| CC(C)(C)OC(=O)N1CCC(COc2ccc(C3=CCC(C(=O)N4CCCCC4)CC3)cc2)CC1 (stereo not shown) [Example 204, tert-butyl 4-((4-(4-(piperidine-1-carbonyl)cyclohex-1-enyl)phenoxy)methyl)piperidine-1-carboxylate] | 9 | ≤ 50 | 24 | – |
| CCN(CCO)C(=O)C1CC=C(c2ccc(OCC3CCN(C(=O)OC(C)(C)C)CC3)cc2)CC1 (stereo not shown) [Example 199, tert-butyl 4-((4-(4-(ethyl(2-hydroxyethyl)carbamoyl)cyclohex-1-enyl)phenoxy)methyl)piperidine-1-carboxylate] | 8 | ≤ 50 | 20.9 | – |
| CCc1cnc(N2CCC(COc3ccc(C4=CCC(C(=O)N5CCC(C#N)CC5)CC4)cc3)CC2)nc1 (stereo not shown) [Example 227, 1-(4-(4-((1-(5-ethylpyrimidin-2-yl)piperidin-4-yl)methoxy)phenyl)cyclohex-3-enecarbonyl)piperidine-4-carbonitrile] | 6 | ≤ 50 | 26.8 | – |
| CC(C)c1noc(N2CCC(COc3ccc(C4=CCC(C(=O)N5CCC[C@@H]5CO)CC4)cc3)CC2)n1 (stereo partly drawn) [Example 147, ((R)-2-(hydroxymethyl)pyrrolidin-1-yl)(4-(4-((1-(3-isopropyl-1,2,4-oxadiazol-5-yl)piperidin-4-yl)methoxy)phenyl)cyclohex-3-enyl)methanone] | 6.9 | ≤ 50 | 23.3 | – |

Source: US9758527B2, “Cyclohexene derivative, preparation method therefor, and pharmaceutical composition for preventing or treating metabolic diseases, containing same as active ingredient” (HYUNDAI PHARM CO., LTD., priority 2014, dated 2017)
